# Reference: patent publication EP1749819A1, “(rac)-N-piperidinyl-5-(4-chlorophenyl)-1-(2,4-dichlorophenyl)-4,5-dihydro-1H-pyrazole-3-carboxamide hydrates” (LABORATORIOS DEL DR. ESTEVE, S.A., priority 2005, dated 2007)
# Key:
# Male NMRI mice [1] = experiment: Mouse tetrad model, agonistic effect; assay type: in vivo; details: 5 mg/kg i.v.
# Text: (§1) Substances with affinity for cannabinoid receptors are known to produce a wide range of pharmacological effects. It is also known that intravenous administration of a substance with affinity for cannabinoid receptors in mice produces analgesia , hypothermia, sedation and catalepsy. Individually, none of these effects can be considered as proof that a tested substance has affinity for cannabinoid-receptors, since all of these effects are common for various classes of centrally active aaents. However, substances, which show all of these effects, i.e. substances that are active in this so-called tetrad model are considered to have affinity for the cannabinoid receptors. It has further been shown that cannabinoid receptor antagonists are higly effective in blocking the effects of a cannabinoid agonist in the mouse tetrad model.
# (§2) The tetrad model is described, for example, in the publication of A. C. Howlett et al, International Union of Pharmacology XXVII. Classification of Cannabinoid Receptors, Pharmacol Rev 54, 161-202 , 2002 and David R. Compton et al., "In-vivo Characterization of a Specific Cannabinoid Receptor Antagonist (SR141716A) :Inhibition of Tetrahydrocannbinol- induced Responses and Apparent Agonist Activity", J. Pharmacol. Exp. Ther. 277 , 2, 586-594, 1996. The corresponding parts of the description are hereby incorporated by reference. […]
# (§3) Before testing in the behavioral procedures given below, mice are acclimatized to the experimental setting. Pre-Treatment control values are determined for analgesia hot plate latency (in seconds), rectal temperature, sedation and catalepsy.
# In order to determine the agonistic activty of the substance to be tested, the mice are injected intravenously with the substance to be tested or the vehicle alone. 15 minutes after injection, latency in hot plate analgesia is measured. Rectal temperature, sedation and catalepsy are measured 20 minutes after injection.
# (§4) The hot plate analgesia is determined according to the method described in Woolfe D. et al. "The evaluation of analgesic action of pethidine hydrochloride (Demerol)", J. Pharmacol. Exp. Ther. 80, 300-307,1944.
# (§5) The mice are placed on a hot plate (Harvard Analgesimeter) at 55 ± 0.5 °C until they show a painful sensation by licking their paws or jumping and the time for these sensations to occur is recorded. This reading is considered the basal value (B). […]
# (§6) Fifteen minuts after the administration of the substance to be tested, the mice are again placed on the hot plate and the afore described procedure is repeated. This period is called the post-treatment reading (PT).
# (§7) The degree of analgesia is calculated from the formula: %MPEof Analgesia = (PT−B)/(PC−B) × 100 [formula] […]
# [2] = target: T1, transfected human CB1 and CB2 receptors: CB1-Receptor (Homo sapiens, UniProt P21554); experiment: In-vitro determination of affinity to CB1 receptor (radioligand [^3H]-CP55940); assay type: binding
# T1 construct: purchased Receptor Biology; Inc
# Procedure: (§8) Brockie et al., "Agonist-inverse agonist characterization at CB1 and CB2 cannabinoid receptors of L-759633, L759656 and AM630", British Journal of Pharmacology, 126, 665-672, (1999), whereby the transfected human CB1 and CB2 receptors of Receptor Biology. Inc. are used. The radioligand used for both receptors is [^3H]-CP55940.
# (§9) The affinity of the inventive substituted pyrazoline compounds to CB1/CB2 receptors was determined as described above.
# [3] = target: T2, transfected human CB1 and CB2 receptors: CB2-Receptor (Homo sapiens, UniProt P34972); experiment: In-vitro determination of affinity to CB2 receptor (radioligand [^3H]-CP55940); assay type: binding
# T2 construct: purchased Receptor Biology; Inc
# Procedure: as §8, §9
# Male NMRI mice [4] = experiment: Mouse tetrad model, antagonistic effect against Win 55212-2; assay type: in vivo; details: 5 mg/kg i.v. prior to Win 55212-2 in a dose of 1,25mg/kg i.v.
# Text: as §1, §2, §3
# In order to determine the antagonistic activity the identical procedure is used as for the determination of the agonistic effects, but with the difference that the substance to be evaluated for its antagonistic activity is injectected 5 minutes before the intravenous injection of 1.25 mg/kg Win-55,212 a known cannabinoid-receptor agonist.
# as §4, §5, §6, §7
# T2 sequence (P34972 whole entry): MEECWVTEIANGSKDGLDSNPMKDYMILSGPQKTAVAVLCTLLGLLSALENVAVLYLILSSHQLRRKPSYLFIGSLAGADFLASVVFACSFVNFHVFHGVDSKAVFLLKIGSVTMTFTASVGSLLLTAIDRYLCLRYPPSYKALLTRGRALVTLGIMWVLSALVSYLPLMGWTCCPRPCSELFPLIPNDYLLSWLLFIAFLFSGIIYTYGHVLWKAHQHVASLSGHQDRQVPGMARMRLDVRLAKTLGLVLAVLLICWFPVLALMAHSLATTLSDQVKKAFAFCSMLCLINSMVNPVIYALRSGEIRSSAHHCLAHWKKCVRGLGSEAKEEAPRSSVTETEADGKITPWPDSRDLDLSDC
# T1 sequence (P21554 whole entry): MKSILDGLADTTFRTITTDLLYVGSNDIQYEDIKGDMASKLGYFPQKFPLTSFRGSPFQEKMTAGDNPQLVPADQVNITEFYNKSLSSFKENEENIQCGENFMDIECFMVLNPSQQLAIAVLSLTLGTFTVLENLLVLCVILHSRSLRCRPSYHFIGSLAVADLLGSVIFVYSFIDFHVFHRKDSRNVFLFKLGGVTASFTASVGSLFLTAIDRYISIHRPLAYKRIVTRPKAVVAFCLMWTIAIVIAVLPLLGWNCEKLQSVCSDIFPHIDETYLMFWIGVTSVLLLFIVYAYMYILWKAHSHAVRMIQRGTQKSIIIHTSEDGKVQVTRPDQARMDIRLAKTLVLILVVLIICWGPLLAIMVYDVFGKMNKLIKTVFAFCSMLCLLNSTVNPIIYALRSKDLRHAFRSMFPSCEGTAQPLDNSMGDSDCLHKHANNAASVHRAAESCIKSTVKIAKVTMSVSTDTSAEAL
structure (smiles),measurement,setting,value
"O=C(NN1CCCCC1)C1=NN(c2ccc(Cl)cc2Cl)C(c2ccc(Cl)cc2)C1 (stereo not shown) [Example 1, N-piperidinyl-5-(4-chlorophenyl)-1-(2,4-dichlorophenyl)-4,5-dihydro-1H-pyrazole-3-carboxamide]",Agonistic effect A: Hot-Plate test,Male NMRI mice [1]; 15 minutes after injection,0
same,Agonistic effect B: Hypothermia,Male NMRI mice [1]; 20 minutes after injection,0
same,Agonistic effect C: Catalepsy,Male NMRI mice [1]; 20 minutes after injection,0
same,Agonistic effect D: Sedation,Male NMRI mice [1]; 20 minutes after injection,0
same,Ki,[2],< 25 nM
same,Ki,[3],> 1000 nM
same,Antagonistic Effect A: Hot-Plate test,Male NMRI mice [4],74
same,Antagonistic Effect B: Hypothermia,Male NMRI mice [4],100
same,Antagonistic Effect C: Catalepsy,Male NMRI mice [4],100
same,Antagonistic Effect D: Sedation,Male NMRI mice [4],100
